{"source": "paper PMC13065080", "about": "“Discovery of a potent anti-Zika virus benzamide series targeting the viral protein NS4B” (PLOS Pathogens, 2026)", "key": {"ZIKV-RLuc": {"system": "ZIKV-RLuc", "experiment": "microbe, parasite or virus in culture", "type": "cell-based, Zika virus", "conditions": "wild type ZIKV-RLuc, Vero 76, MOI 0.1, three days, read-out: EC50 ZIKV-RLuc"}, "ZIKV PLCal [1]": {"system": "ZIKV PLCal", "experiment": "Virus yield (titer) reduction assay in Vero 76 cells", "type": "cell-based, Zika virus", "conditions": "5 µM, Vero 76, 0.05 m.o.i., two days"}, "CHIKV": {"system": "CHIKV", "experiment": "microbe, parasite or virus in culture", "type": "cell-based", "conditions": "Chikungunya virus, Vero 76, read-out: EC50-CPE CHIKV"}, "ZIKV viral E protein": {"system": "ZIKV viral E protein", "experiment": "Viral E protein expression by fluorescence microscopy (4G2 antibody)", "type": "cell-based, Zika virus", "conditions": "ZIKV-infected Vero76, 2 days post infection"}, "ZIKV PRVABC59": {"system": "ZIKV PRVABC59", "experiment": "microbe, parasite or virus in culture", "type": "cell-based", "conditions": "Zika virus; CPE-protection"}, "ZIKV-RLuc NS4B V248G": {"system": "ZIKV-RLuc NS4B V248G", "type": "cell-based, Zika virus"}, "YFV 17D": {"system": "YFV 17D", "experiment": "microbe, parasite or virus in culture", "type": "cell-based", "conditions": "Yellow fever virus; CPE-protection"}, "ZIKV-RLuc NS4B A245T": {"system": "ZIKV-RLuc NS4B A245T", "type": "cell-based, Zika virus"}, "NS3-NS4B interaction": {"molecular_target": "NS3-NS4B interaction (Zika virus, UniProt A0A142I5B9)", "type": "cell-based"}, "[2]": {"system": "cleavage between NS4B and NS5", "experiment": "NS4B-NS5 polyprotein processing", "type": "cell-based, Zika virus", "conditions": "HEK-293T"}, "ZIKV-RLuc NS4B mutants": {"system": "ZIKV-RLuc NS4B mutants", "type": "cell-based, Zika virus"}, "IFN-α/β induction": {"system": "IFN-α/β induction", "experiment": "Interferon response measurement in ZIKV-infected Huh 7.5.1 cells", "type": "cell-based", "conditions": "Huh 7.5.1, ZIKV MOI 3, 24 h.p.i.", "description": "Huh 7.5.1. cells were infected with ZIKV with/without test compound treatment, and the supernatants were harvested at 24 h.p.i. and tested for interferon- α/β (IFN- α/β) following the manufacturer’s protocol. HEK-Blue IFN-α/β cells (5000 cells/well) were incubated in 96-well plates with 20 µL of test samples for overnight. The following day, 20 µL of the cell supernatant from the HEK-Blue IFN-α/β cells were further incubated with 180 µL of pre-warmed Quanti-blue SEAP reagent (Invivogen) for 2 hours and the O.D. A620 was measured using a Cytation 1 (Agilent). As a positive and negative control, recombinant human IFN-α2b (InvivoGen, 30 pg/ml) and conditioned media from mock-infected Huh 7.5.1. were used."}, "in vitro": {"experiment": "in vitro", "conditions": "African green monkey, CC50 Vero76"}, "ZIKV DAK-41525-MA": {"system": "ZIKV DAK-41525-MA", "experiment": "CPE-protection assay, ZIKV DAK-41525-MA", "type": "cell-based, Zika virus", "conditions": "Zika virus"}, "DENV Type 4 H241": {"system": "DENV Type 4 H241", "experiment": "microbe, parasite or virus in culture", "type": "cell-based", "conditions": "Dengue virus, read-out: EC50 DENV Type 4 H241"}, "ZIKV PLCal [3]": {"system": "ZIKV PLCal", "experiment": "Virus yield (titer) reduction assay in Huh 7.5.1 cells", "type": "cell-based, Zika virus", "conditions": "1 µM"}, "Vero76": {"system": "Vero76", "conditions": "African green monkey"}, "ZIKV PLCal [4]": {"system": "ZIKV PLCal", "experiment": "CPE-based anti-ZIKV concentration-response assay (96-well)", "type": "cell-based, Zika virus", "conditions": "Zika virus, 72 h; Vero 76, MOI 0.05, 3-day incubation, CellTiter-Glo; read-out: EC50-CPE ZIKV-PLCal"}, "JEV SA-14": {"system": "JEV SA-14", "experiment": "CPE-protection assay, JEV", "type": "cell-based, Japanese encephalitis virus", "conditions": "Japanese encephalitis virus"}, "ZIKV": {"system": "ZIKV", "experiment": "Combination treatment and synergy scoring, CPE-based anti-ZIKV assay", "type": "cell-based", "conditions": "Zika virus; single agent, Fig 6A; read-out: EC50 as a single agent in the dose-response anti-ZIKV assay"}, "ZIKV MR766": {"system": "ZIKV MR766", "experiment": "microbe, parasite or virus in culture", "type": "cell-based", "conditions": "Zika virus; CPE-protection"}, "ZIKV FLR": {"system": "ZIKV FLR", "experiment": "microbe, parasite or virus in culture", "type": "cell-based", "conditions": "Zika virus; CPE-protection"}, "ZIKV-RLuc NS4B V241L": {"system": "ZIKV-RLuc NS4B V241L", "type": "cell-based, Zika virus"}, "WNV NY-99": {"system": "WNV NY-99", "experiment": "CPE-protection assay, WNV", "type": "cell-based, West Nile virus", "conditions": "West Nile virus"}, "ZIKV Ib H30656": {"system": "ZIKV Ib H30656", "experiment": "microbe, parasite or virus in culture", "type": "cell-based", "conditions": "Zika virus; CPE-protection"}}, "note": "Where two headings read alike, the source gives them in different places.", "data": [{"smiles": "CC(C)(C)c1ccc(C(=O)NC2CCCC2)cc1", "note": "[MWAC-3475]", "values": [{"measurement": "EC50", "setting": "ZIKV-RLuc; Zika virus, Vero 76, 72 h", "result": 0.39, "unit": "µM"}, {"measurement": "EC50", "setting": "ZIKV-RLuc", "result": "0.34 ± 0.28", "unit": "µM"}, {"measurement": "reduction in progeny virus titers", "setting": "ZIKV PLCal [1]", "result": "> 1000", "unit": "fold"}, {"measurement": "EC50", "setting": "CHIKV", "result": "> 50", "unit": "µM"}, {"measurement": "intensity and abundance of viral E protein (4G2 antibody)", "setting": "ZIKV viral E protein", "result": "decreased in a concentration-dependent manner"}, {"measurement": "EC50", "setting": "ZIKV PRVABC59", "result": "0.91 ± 0.2", "unit": "µM"}, {"measurement": "EC50", "setting": "ZIKV-RLuc NS4B V248G", "result": 5.12, "unit": "µM"}, {"measurement": "Fold-increase / fold-change of EC50, NS4B V248G vs wild type", "setting": "ZIKV-RLuc NS4B V248G", "result": 13.20}, {"measurement": "EC50", "setting": "YFV 17D", "result": "> 50", "unit": "µM"}, {"measurement": "EC50", "setting": "ZIKV-RLuc NS4B A245T", "result": 2.29, "unit": "µM"}, {"measurement": "Fold-increase / fold-change of EC50, NS4B A245T vs wild type", "setting": "ZIKV-RLuc NS4B A245T", "result": 5.91}, {"measurement": "disruption of NS3-NS4B interaction", "setting": "NS3-NS4B interaction", "result": "did not inhibit either of these steps"}, {"measurement": "effect on cleavage between NS4B and NS5", "setting": "[2]", "result": "no such effect was detected"}, {"measurement": "fold decrease in potency by NS4B mutations", "setting": "ZIKV-RLuc NS4B mutants", "result": "6- to 55 fold"}, {"measurement": "induction of interferon in the infected cells", "setting": "IFN-α/β induction", "result": "did not inhibit either of these steps"}, {"measurement": "CC50", "setting": "in vitro", "result": 28, "unit": "µM"}, {"measurement": "EC50", "setting": "ZIKV DAK-41525-MA", "result": "1.54 ± 0.27", "unit": "µM"}, {"measurement": "EC50", "setting": "DENV Type 4 H241", "result": "> 50", "unit": "µM"}, {"measurement": "VYR: Virus Yield reduction (Log 10)", "setting": "ZIKV PLCal [3]", "result": "-0.36 ± 0.07", "unit": "Log 10"}, {"measurement": "CC50", "setting": "Vero76", "result": "28.1 ± 6.5", "unit": "µM"}, {"measurement": "EC50", "setting": "ZIKV PLCal [4]", "result": "0.63 ± 0.65", "unit": "µM"}, {"measurement": "EC50", "setting": "JEV SA-14", "result": "> 50", "unit": "µM"}, {"measurement": "EC50", "setting": "ZIKV", "result": 0.616, "unit": "µM"}, {"measurement": "EC50", "setting": "ZIKV MR766", "result": "5.93 ± 1.26", "unit": "µM"}, {"measurement": "EC50", "setting": "ZIKV FLR", "result": "1.13 ± 0.11", "unit": "µM"}, {"measurement": "EC50", "setting": "ZIKV-RLuc NS4B V241L", "result": 21.4, "unit": "µM"}, {"measurement": "Fold-increase / fold-change of EC50, NS4B V241L vs wild type", "setting": "ZIKV-RLuc NS4B V241L", "result": 55.24}, {"measurement": "EC50", "setting": "WNV NY-99", "result": "> 50", "unit": "µM"}, {"measurement": "EC50", "setting": "ZIKV Ib H30656", "result": "1.01 ± 0.21", "unit": "µM"}]}]}
